Measured values: ChEMBL document CHEMBL1144759, “Neuroprotective limonoids of root bark of Dictamnus dasycarpus” (J Nat Prod, 2008)
pEC50: −log10 of the molar value. Where a name gives a salt, the structure may show the parent alone.

Tests used:
[1] = Neuroprotective activity against rat cortical cells assessed as glutamate-induced neurotoxicity by MTT assay; type: functional, cell-based
[2] = Neuroprotective activity against rat cortical cells at 10.0 uM assessed as glutamate-induced neurotoxicity by MTT assay; type: functional
[3] = Neuroprotective activity against rat cortical cells at 0.1 uM assessed as glutamate-induced neurotoxicity by MTT assay; type: functional
[4] = Neuroprotective activity against rat cortical cells at 1.0 uM assessed as glutamate-induced neurotoxicity by MTT assay; type: functional

SMILES	pEC50 [1]	Emax at 10 µM [2]	Emax at 0.1 µM [3]	Emax at 1 µM [4]
CC1(C)O[C@H]2CC(=O)OC[C@]23[C@H]2CC[C@@]4(C)[C@H](c5ccoc5)OC(=O)[C@H]5O[C@]54[C@]2(C)[C@@H](O)C(=O)[C@@H]13 [RUTAEVIN]	5.51	65.4%		
CC1(C)O[C@H]2CC(=O)OC[C@]23[C@H]2CC[C@@]4(C)[C@H](c5ccoc5)OC(=O)[C@H]5O[C@]54[C@]2(C)C(=O)C[C@@H]13 [LIMONIN]	7.74		75.9%	
CC1=C2C(=O)O[C@@H](c3ccoc3)[C@]2(C)CC[C@@H]1O	7.01		51.1%	
CC1(C)OC(=O)C=C[C@]2(C)[C@H]3CC[C@@]4(C)[C@H](c5ccoc5)OC(=O)[C@H]5O[C@]54[C@]3(C)C(=O)C[C@@H]12 [OBACUNONE]	7.41		63.9%	
CC1=C2C(=O)O[C@@H](c3ccoc3)[C@]2(C)CCC1=O [FRAXINELLONONE]				47.6%
C[C@]12N[C@H](Cc3ccccc31)c1ccccc12 [DIZOCILPINE MALEATE]	6.32	83.8%		
CC1=C2[C@H](O)C(=O)O[C@@H](c3ccoc3)[C@]2(C)CC[C@H]1O [DICTAMDIOL B]			45.6%	
CC1=CCC[C@@]2(C)[C@H](c3ccoc3)OC(=O)[C@H]3O[C@]132 [CALODENDROLIDE]	7.72		71.9%	
CC1=C2[C@@H](O)C(=O)O[C@@H](c3ccoc3)[C@]2(C)CC[C@@H]1O [DICTAMDIOL A]	7.17		68.1%	
CC1=C2[C@H](O)C(=O)O[C@@H](c3ccoc3)[C@]2(C)CC[C@@H]1O [DICTAMDIOL]			35.3%	
CC1=C2C(=O)O[C@@H](c3ccoc3)[C@]2(C)CCC1 [FRAXINELLONE]	7.66		70.4%	
C[C@H]1C2=C(O)C(=O)O[C@@H](c3ccoc3)[C@]2(C)CC[C@@H]1O[C@@H]1O[C@H](CO)[C@@H](O)[C@H](O)[C@H]1O [DICTAMNUSINE]	7.38		62.1%	
CC1=C2C(=O)O[C@@H](c3ccoc3)[C@]2(C)CC[C@H]1O[C@@H]1O[C@H](CO)[C@@H](O)[C@H](O)[C@H]1O	6.15			53%
